Results on 17 molecules are retold here after patent publication US20230159511A1, “TETRAHYDROISOQUINOLINE COMPOUNDS AS NRF2 ACTIVATORS” (C4X Discovery Limited, priority 2020, published 2023).

Assay [1] deals with NRF2 mediated gene NAD(P)H:quinone acceptor oxidoreductase 1 (NQO1) in BEAS-2B cells. Nature of the assay: Beas2B NQO1 mRNA Cell Based Assay. More on the design: species or system human. Conditions: Homo sapiens; BEAS-2B cells, compound for 24 h; increase in NQO1 mRNA compared to vehicle (0.1% DMSO) control; read-out: EC50. As to the method: Beas2B NQO1 mRNA Cell Based Assay
The up regulation of the NRF2 mediated gene NAD(P)H:quinone acceptor oxidoreductase 1 (NQO1) was measured using the following assay method: BEAS-2B cells (ATCC CRL-9609) were plated in 96-well clear plates at 20,000 cells/well in 75 μL of cell culture media and incubated overnight (37° C., 5% CO2). On day 2, 25 μL of compound or controls were added to the cells for 24 h. On day 3, the medium was aspirated from the plate and the Cells-to-CT™ 1-Step TaqMan® Kit (Ambion A25603) was used to perform expression analysis directly from cultured cells without RNA purification according to the manufacturer's instructions.
Briefly, cells were washed with ice cold PBS and 22.5 μL of room-temperature DNase/Lysis solution was added to the cells and incubated at room temperature for 5 minutes. To stop the reaction, 2.25 μL of stop solution was added to the cell lysate. The samples were diluted 1:5 using nuclease free water and 2.5 μL transferred into the PCR plate. Real-time PCR was performed using the C-1000 Thermal Cycler (Bio-Rad) using human beta actin as the internal control. The cDNA was amplified with a specific primer for NQO1 using the 1-step RT-PCR master mix (Ambion Cells-to-CTTM 1-Step TaqMan® Kit A25603). The primers/probes sets that were used for amplification of cDNA were obtained from TaqMan Gene Expression Assays (Applied Biosystems). The comparative CT (ΔΔCT) relative quantification method was used to calculate the relative mRNA level of the target gene NQO1 as described in the Applied Biosystems Chemistry Guide. The data are expressed as an increase in target gene mRNA compared to vehicle (0.1% DMSO) control and the EC50 values were determined by fitting the data to a four parameter logistic fit using XLfit or XE Runner within ActivityBase.

The target in assay [2] is T1, human KEAP1 (N-term, residues 321-609) (Homo sapiens, UniProt Q14145).
T1 construct: human KEAP1 (N-term, residues 321-609)
Nature of the assay: KEAP1 Kelch Fluorescence Polarization (FP) Assay. The assay is classed as binding. To be noted: inhibition of Kelch domain-NRF2 interaction; 2 nM FITC-labelled NRF2 peptide, 25 nM KEAP1, 1 h room temperature; compounds below 10 nM cannot be differentiated. The gist of the method: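 FP competition: 2 nM FITC-NRF2 peptide (LDEETGEFL) with 25 nM KEAP1 Kelch domain, pH 8.0 Tris buffer, 0.5% DMSO, 1 h at room temperature; 12-point 1:3 dilutions from 10 μM.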

T1 sequence (Q14145 321-609): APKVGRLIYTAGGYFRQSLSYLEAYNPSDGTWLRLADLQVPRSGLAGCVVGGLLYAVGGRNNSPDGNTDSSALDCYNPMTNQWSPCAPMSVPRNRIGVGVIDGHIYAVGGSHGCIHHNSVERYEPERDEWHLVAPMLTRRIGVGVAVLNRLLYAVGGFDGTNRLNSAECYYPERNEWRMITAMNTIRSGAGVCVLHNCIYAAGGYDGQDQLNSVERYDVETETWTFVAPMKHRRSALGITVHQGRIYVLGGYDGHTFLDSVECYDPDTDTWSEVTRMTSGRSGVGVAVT

With `NC(=O)[C@H]1CCCC[C@H]1C(=O)N1CCc2cccc(OCCCC(=O)N3CCCC3)c2[C@H]1CN1C(=O)c2ccccc2C1=O` [Example 1, (1S,2R)-2-((S)-1-((1 ,3-dioxoisoindolin-2-yl)methyl)-8-(4-oxo-4-(pyrrolidin-1-yl)butoxy)-1,2,3,4-tetrahydroisoquinoline-2-carbonyl)cyclohexane-1-carboxamide], in assay [1], the 50% effective concentration (EC50) stood at 2030 nM. The IC50 in assay [2] worked out at 901 nM.
With `CCNC(=O)[C@H]1CCCC[C@H]1C(=O)N1CCc2cccc(OCCNC(=O)c3cc(C)on3)c2[C@H]1CN1C(=O)c2ccccc2C1=O` [Example 6, N-(2-(((S)-1-((1,3-dioxoisoindolin-2-yl)-methyl)-2((1R,2S)-2-(ethylcarbamoyl)cyclohexane-1-carbonyl)-1,2,3,4-tetrahydroisoguinolin-8-yl)oxy)ethyl)-5-methylisoxazole-3-carboxamide], the half-maximal effective concentration (EC50) in assay [1] was found to be 2360 nM. In addition, the midpoint of inhibition in assay [2], the IC50, lay at 196 nM.
Regarding `CNC(=O)[C@H]1CCCC[C@H]1C(=O)N1CCc2cccc(O[C@H]3CCN(C(=O)c4cncs4)C3)c2[C@H]1CN1C(=O)c2ccccc2C1=O` [Example 17, (1S,2R)-2-((S)-1-((1,3-dioxoisoindolin-2-yl)methyl)-8-(((S)-1-(thiazole-5-carbonyl)pyrrolidin-3-yl)oxy)-1,2,3,4-tetrahydroisoquinoline-2-carbonyl)-N-methylcyclohexane-1-carboxamide], the concentration giving a half-maximal response (EC50) in assay [1] amounted to 3070 nM. This molecule yielded a half-inhibitory concentration (IC50) in assay [2] of 28 nM.
For the molecule `CNC(=O)[C@H]1CCCC[C@H]1C(=O)N1CCc2cccc(O[C@H]3CCN(C(=O)c4cc(C)on4)C3)c2[C@H]1CN1C(=O)c2ccccc2C1=O` [Example 20, (1S,2R)-2-((S)-1-((1,3-dioxoisoindolin-2-yl)methyl)-8-(((S)-1-(5-methylisoxazole-3-carbonyl)pyrrolidin-3-yl)oxy)-1,2,3,4-tetrahydroisoquinoline-2-carbonyl)-N-methylcyclohexane-1-carboxamide], in assay [1], the EC50 was over 500 nM. Also, the concentration for half-maximal inhibition (IC50) in assay [2] was determined as 29 nM.
For `O=C(NCC(F)(F)CO)[C@H]1CCCC[C@H]1C(=O)N1CCc2cccc(O[C@H]3CCN(C(=O)c4cncs4)C3)c2[C@H]1CN1C(=O)c2ccccc2C1=O` [Example 34, (1S,2R)-N-(2,2-difluoro-3-hydroxypropyl)-2-((S)-1-((1,3-dioxoisoindolin-2-yl)methyl)-8-(((S)-1-(thiazole-5-carbonyl)pyrrolidin-3-yl)oxy)-1,2,3,4-tetrahydroisoquinoline-2-carbonyl)cyclohexane-1-carboxamide], in that order: 193 nM and 36 nM.
For `CCNC(=O)[C@H]1CCCC[C@H]1C(=O)N1CCc2cccc(O[C@H]3CCN(C(=O)c4cncs4)C3)c2[C@H]1CN1C(=O)c2ccccc2C1=O` [Example 42, (1S,2R)-2-((S)-1-((1,3-dioxoisoindolin-2-yl)methyl)-8-(((S)-1-(thiazole-5-carbonyl)pyrrolidin-3-yl)oxy)-1,2,3,4-tetrahydroisoquinoline-2-carbonyl)-N-ethylcyclohexane-1-carboxamide], in that order: 580 nM and 53 nM.
Regarding `CNC(=O)[C@H]1CCCC[C@H]1C(=O)N1CCc2c(Cl)ccc(OCc3noc4ccccc34)c2[C@H]1CN1CCCC1=O` [Example 52, (1S,2R)-2-((S)-8-(benzo[d]isoxazol-3-ylmethoxy)-5-chloro-1-((2-oxopyrrolidin-1-yl)methyl)-1,2,3,4-tetrahydroisoquinoline-2-carbonyl)-N-methylcyclohexane-1-carboxamide], the EC50 in assay [1] amounted to 285 nM. Besides, in assay [2], inhibition was half-maximal at 38 nM (IC50).
For `CCNC(=O)[C@H]1CCCC[C@H]1C(=O)N1CCc2c(Cl)ccc(OCc3noc4ccccc34)c2[C@H]1CN1CCCC1=O` [Example 53, (1S,2R)-2-((S)-8-(benzo[d]isoxazol-3-ylmethoxy)-5-chloro-1-((2-oxopyrrolidin-1-yl)methyl)-1,2,3,4-tetrahydroisoquinoline-2-carbonyl)-N-ethylcyclohexane-1-carboxamide], in that order: 189 nM and 47 nM.
For `NC(=O)[C@H]1CCCC[C@H]1C(=O)N1CCc2c(Cl)ccc(OCc3noc4ccccc34)c2[C@H]1CN1CCCC1=O` [Example 54, (1S,2R)-2-((S)-8-(benzo[d]isoxazol-3-ylmethoxy)-5-chloro-1-((2-oxopyrrolidin-1-yl)methyl)-1,2,3,4-tetrahydroisoquinoline-2-carbonyl)cyclohexane-1-carboxamide, reference compound], the 50% effective concentration (EC50) in assay [1] stood at 135 nM. This molecule had an IC50 in assay [2] of 31 nM.
As for `CNC(=O)[C@H]1CCCC[C@H]1C(=O)N1CCc2c(Br)ccc(OCc3noc(C(C)C)n3)c2[C@H]1CN1CCCC1=O` [Example 55, (1S,2R)-2-((S)-5-bromo-8-((5-isopropyl-1,2,4-oxadiazol-3-yl)methoxy)-1-((2-oxopyrrolidin-1-yl)methyl)-1,2,3,4-tetrahydroisoquinoline-2-carbonyl)-N-methylcyclohexane-1-carboxamide], in assay [1], the EC50 was determined as 330 nM. The molecule also returned an IC50 in assay [2] of 54 nM.
For `CNC(=O)[C@H]1CCCC[C@H]1C(=O)N1CCc2c(Br)ccc(OCc3nnn(C)c3C(F)F)c2[C@H]1CN1Cc2ccccc2C1=O` [Example 56, (1S,2R)-2-((S)-5-bromo-8-((5-(difluoromethyl)-1-methyl-1H-1,2,3-triazol-4-yl)methoxy)-1-((1-oxoisoindolin-2-yl)methyl)-1,2,3,4-tetrahydroisoquinoline-2-carbonyl)-N-methylcyclohexane-1-carboxamide], in that order: 124 nM and 13 nM.
For the molecule `CNC(=O)[C@H]1CCCC[C@H]1C(=O)N1CCc2c(Cl)ccc(OCc3noc(C(C)C)n3)c2[C@H]1CN1CCCC1=O` [Example 57, (1S,2R)-2-((S)-5-chloro-8-((5-isopropyl-1,2,4-oxadiazol-3-yl)methoxy)-1-((2-oxopyrrolidin-1-yl)methyl)-1,2,3,4-tetrahydroisoquinoline-2-carbonyl)-N-methylcyclohexane-1-carboxamide], in assay [1], the 50% effective concentration (EC50) was 4000 nM. This molecule also had an IC50 in assay [2] of 112 nM.
As for `CNC(=O)[C@H]1CCCC[C@H]1C(=O)N1CCc2c(Cl)ccc(OCc3nnn(C)c3C(F)F)c2[C@H]1CN1CCCC1=O` [Example 58, (1S,2R)-2-((S)-5-chloro-8-((5-(difluoromethyl)-1-methyl-1H-1,2,3-triazol-4-yl)methoxy)-1-((2-oxopyrrolidin-1-yl)methyl)-1,2,3,4-tetrahydroisoquinoline-2-carbonyl)-N-methylcyclohexane-1-carboxamide], in assay [1], the half-maximal effective concentration (EC50) stood at 206 nM. Also, 11 nM corresponded to half-maximal inhibition in assay [2] (IC50).
For `CNC(=O)[C@H]1CCCC[C@H]1C(=O)N1CCc2c(Cl)ccc(OCc3cccnc3)c2[C@H]1CN1CCCC1=O` [Example 60, (1S,2R)-2-((S)-5-chloro-1-((2-oxopyrrolidin-1-yl)methyl)-8-(pyridin-3-ylmethoxy)-1,2,3,4-tetrahydroisoquinoline-2-carbonyl)-N-methylcyclohexane-1-carboxamide], in that order: 650 nM and 72 nM.
For `CNC(=O)[C@H]1CCCC[C@H]1C(=O)N1CCc2c(Cl)ccc(OCc3cccnn3)c2[C@H]1CN1CCCC1=O` [Example 61, (1S,2R)-2-((S)-5-chloro-1-((2-oxopyrrolidin-1-yl)methyl)-8-(pyridazin-3-ylmethoxy)-1,2,3,4-tetrahydroisoquinoline-2-carbonyl)-N-methylcyclohexane-1-carboxamide], in that order: 1080 nM and 34 nM.
For `CNC(=O)[C@H]1CCCC[C@H]1C(=O)N1CCc2c(Cl)ccc(OCc3cnccn3)c2[C@H]1CN1CCCC1=O` [Example 62, (1S,2R)-2-((S)-5-chloro-1-((2-oxopyrrolidin-1-yl)methyl)-8-(pyrazin-2-ylmethoxy)-1,2,3,4-tetrahydroisoquinoline-2-carbonyl)-N-methylcyclohexane-1-carboxamide], in that order: 1460 nM and 82 nM.
Take `CNC(=O)[C@H]1CCCC[C@H]1C(=O)N1CCc2c(Cl)ccc(OCc3ccccn3)c2[C@H]1CN1CCCC1=O` [Example 63, (1S,2R)-2-((S)-5-chloro-1-((2-oxopyrrolidin-1-yl)methyl)-8-(pyridin-2-ylmethoxy)-1,2,3,4-tetrahydroisoquinoline-2-carbonyl)-N-methylcyclohexane-1-carboxamide]: in assay [1], the EC50 was over 10000 nM. In assay [2], the IC50 was determined as 340 nM.

For orientation: EC50 means the concentration at which the effect is half-maximal. As a reminder, the IC50 is the concentration at which inhibition is half-maximal.
